According to publication PMC8815882, “Screening the pandemic response box identified benzimidazole carbamates, Olorofim and ravuconazole as promising drug candidates for the treatment of eumycetoma” (PLoS Neglected Tropical Diseases, 2022):
Read-outs that look alike come from different tables or passages of the source.

Tested on: M. mycetomatis genome strain MM55
Experiment: CLSI M38-A2 based in vitro susceptibility screening (XTT or resazurin), growth at fixed concentration
Type: cell-based, Madurella mycetomatis
Conditions: Madurella mycetomatis; for Percent fungal survival at 100 µM: read-out: Percentage survival at 100um, 100 uM A (second replicate column)
[1] = mean of three replicates, read-out: Percentage survival at 25um, 25 uM mean
[2] = replicate A, read-out: Percentage survival at 25um, 25 um A
[3] = replicate B, read-out: Percentage survival at 25um, 25 uM B
[4] = replicate C, read-out: Percentage survival at 25um, 25 uM C
[5] = mean of three replicates, read-out: Percentage survival at 100um, 100 uM mean
[6] = replicate 1, read-out: Percentage survival at 100um, 100 uM A (first replicate column)
[7] = replicate 3, read-out: Percentage survival at 100um, 100 uM A (third replicate column)
[8] = mean of replicates, read-out: Percentage survival at 25um, 25 uM mean
[9] = mean of replicates, read-out: Percentage survival at 100um, 100 uM mean
[10] = replicate 1, read-out: Percentage survival at 100um, 100 uM A
[11] = replicate 2, read-out: Percentage survival at 100um, 100 uM A
[12] = replicate 3, read-out: Percentage survival at 100um, 100 uM A
[13] = first replicate column, read-out: Percentage survival at 100um, 100 uM A
[14] = second replicate column, read-out: Percentage survival at 100um, 100 uM A
[15] = third replicate column, read-out: Percentage survival at 100um, 100 uM A
[16] = mean of replicates, MM55, read-out: Percentage survival at 25um, 25 uM mean
[17] = replicate A, MM55, read-out: Percentage survival at 25um, 25 um A
[18] = replicate B, MM55, read-out: Percentage survival at 25um, 25 uM B
[19] = replicate C, MM55, read-out: Percentage survival at 25um, 25 uM C
[20] = mean of replicates, MM55, read-out: Percentage survival at 100um, 100 uM mean
[21] = replicate 1, MM55, read-out: Percentage survival at 100um, 100 uM A
[22] = replicate 2, MM55, read-out: Percentage survival at 100um, 100 uM A
[23] = replicate 3, MM55, read-out: Percentage survival at 100um, 100 uM A

Row | SMILES | activity at 25 µM [1] [%] | activity at 25 µM [2] [%] | activity at 25 µM [3] [%] | activity at 25 µM [4] [%] | activity at 100 µM [5] [%] | activity at 100 µM [6] [%] | Percent fungal survival at 100 µM (replicate 2) [%] | activity at 100 µM [7] [%] | further results
1 | COc1cc2c(O)c3c(c(-c4ccc5c(c4)OCO5)c2cc1OC)C(=O)OC3 [MMV102270] | 80.6 | 79.5 | 84.8 | 77.5 | 107 | 93.7 | 74.4 | 153 | –
2 | O=C(Nc1nnc(-c2ccc(Cl)cc2)o1)c1nc2ccccc2s1 [MMV102833] | 111 | 134 | 137 | 62.9 | 73.2 | 81.5 | 66.4 | 71.7 | –
3 | CC(C)Nc1ncnc2c1cnn2-c1ccc(Cl)cc1 [MMV108465] | – | 53.4 | 64.9 | 71.1 | – | – | – | – | activity at 25 µM [8]: 63.1%; activity at 100 µM [9]: 22.2%; activity at 100 µM [10]: 0.471%; activity at 100 µM [11]: 1.77%; activity at 100 µM [12]: 64.4%
4 | CCOc1ccc(C(=O)NCCc2ccccc2)cc1 [MMV124656] | 89.4 | 88.1 | 108 | 71.9 | 57.6 | 63.4 | 48.9 | 60.4 | –
5 | Clc1cccc(-c2nnc(-c3ccccc3)o2)c1 [MMV141011] | – | 78.3 | 72.5 | 50.5 | – | – | – | – | activity at 25 µM [8]: 67.1%; activity at 100 µM [9]: 67.1%; activity at 100 µM [10]: 58.8%; activity at 100 µM [11]: 65.1%; activity at 100 µM [12]: 77.6%
6 | NC1C2CC3CC(C2)CC1C3 (stereo not shown) [MMV180402] | 83.1 | 84.6 | 88.7 | 76 | 78 | – | – | – | activity at 100 µM [13]: 78.9%; activity at 100 µM [14]: 67.8%; activity at 100 µM [15]: 87.1%
7 | O=C(CC1Sc2ncnn2C1=O)Nc1ccc(Br)cc1 (stereo not shown) [MMV214956] | 63.2 | 56.2 | 60 | 73.5 | -1.13 | -7.27 | -0.0182 | 3.91 | –
8 | O=C(O)CSc1cc(NS(=O)(=O)c2cccc3cccnc23)c2ccccc2c1O [MMV218827] | – | – | – | – | – | – | – | – | activity at 25 µM [16]: 91.4%; activity at 25 µM [17]: 90.9%; activity at 25 µM [18]: 95.2%; activity at 25 µM [19]: 88.2%; activity at 100 µM [20]: 89.8%; activity at 100 µM [21]: 82.4%; activity at 100 µM [22]: 84.7%; activity at 100 µM [23]: 102%
9 | O=C(O)c1cc(-c2ccc(Br)cc2)nc2ccc(Cl)cc12 [MMV247764] | – | – | – | – | – | – | – | – | activity at 25 µM [16]: 73.4%; activity at 25 µM [17]: 82.6%; activity at 25 µM [18]: 78.8%; activity at 25 µM [19]: 58.9%; activity at 100 µM [20]: 54.4%; activity at 100 µM [21]: 60.9%; activity at 100 µM [22]: 52.4%; activity at 100 µM [23]: 49.8%
10 | O=S(=O)(Nc1ccc(O)cc1)c1cccc2cccnc12 [MMV251679] | 86.4 | 84.9 | 92.9 | 81.3 | 91.6 | – | – | – | activity at 100 µM [13]: 98.4%; activity at 100 µM [14]: 87.2%; activity at 100 µM [15]: 89.3%
11 | CCN1CCN(Cc2nc3ccc([N+](=O)[O-])cc3c(=O)n2-c2ccccc2F)CC1 [MMV275100] | – | – | – | – | – | – | – | – | activity at 25 µM [16]: 81.2%; activity at 25 µM [17]: 83%; activity at 25 µM [18]: 93.5%; activity at 25 µM [19]: 67.1%; activity at 100 µM [20]: 72.6%; activity at 100 µM [21]: 70.7%; activity at 100 µM [22]: 69.8%; activity at 100 µM [23]: 77.1%
